Where “and” joins values, the source holds several entries; their conditions need not be identical. Identical values can stand only once. Like-named read-outs stand apart in the source and are kept apart here. Values belong to the compound of their own block, whether it stands above or below them.
What was measured:
[1] = test system: HUVEC (Normal human endothelial cell); experiment: Cytotoxicity, HUVEC normal cells
[2] = test system: SCC25 (squamous-cell carcinoma of the oral cavity); experiment: Cytotoxicity, SCC25 cells; format: cell-based; details: Homo sapiens, SCC-25, read-out: CI50% tumor cells
[3] = test system: SCC9 (squamous-cell carcinoma of the oral cavity); experiment: Cytotoxicity, SCC9 cells; format: cell-based; details: Homo sapiens, SCC-9, read-out: CI50% tumor cells
[4] = test system: 4T1 (murine mammary carcinoma); experiment: Cytotoxicity, 4T1 cells; format: cell-based; details: Mus musculus, read-out: CI50% tumor cells
Colo205 [5] = experiment: In vitro cytotoxicity, Colo205 colon line; format: cell-based; details: Homo sapiens, COLO 205
HT-29 = experiment: In vitro cytotoxicity, HT-29 colon line; format: cell-based; details: Homo sapiens
DLD1 = experiment: Antitumor activity, DLD1 line; format: cell-based; details: Homo sapiens, DLD-1; DLD1, Table 3; read-out: CI50% (the source's name)
SW620 = experiment: In vitro cytotoxicity, SW620 colon line; format: cell-based; details: Homo sapiens, SW-620
CRO2B = experiment: In vitro cytotoxicity, CRO2B carcinoid line; format: cell-based; details: Homo sapiens
PANC1 = experiment: In vitro cytotoxicity, PANC1 pancreas line; format: cell-based; details: Homo sapiens, PANC-1
CaCo2 = experiment: In vitro cytotoxicity, CaCo2 colon line; format: cell-based; details: Homo sapiens, Caco-2
[6] = test system: lines of human carcinoma tested; experiment: In vitro cytotoxicity against the panel of human carcinoma lines
BxPC3 = experiment: In vitro cytotoxicity, BxPC3 pancreas line; format: cell-based; details: Homo sapiens, BXPC-3
MIAP2 = experiment: In vitro cytotoxicity, MIAP2 pancreas line; format: cell-based; details: Homo sapiens
[7] = test system: FN-1 (Normal human fibroblast); experiment: Cytotoxicity, normal human fibroblasts; format: cell-based; details: for CI50% Normal cells: FN-1
Method: Fragments of cutaneous biopsies from patients treated by the Dermatology Service of the Clinic Hospital of the Medicine School of USP were removed for routine diagnostic procedures and part of the surgical flap edge immersed in Eagle culture medium modified by Dulbecco's (DMEM, Sigma Chemical Co., St. Louis, Mo., USA) added of 10% fetal bovine serum (Cultilab Ltda., Campinas-SP), […] and 50 ng/ml amphotericin B at 4 C and kept at 4 C for a maximum of 16 hours.
The fragments were washed three times in the same solution, cut into fragments of approximately 1 mm^3 and transferred to 25 cm^2 culture flasks, kept at 37 C, humid atmosphere containing 5% CO2. Cell growth monitored daily, photo documented in inversion microscopy and culture medium exchanged every 2 or 3 days, according to cell metabolism.
After 7 days, the first change in the culture medium of the flasks was performed once cell growth started, the culture medium was renewed every three days. Plastic flasks were used for cultivation of 25 cm^2 of cultivated area, where more 3 ml of DME medium containing 10% fetal bovine serum and 1% of antibiotic-antimycotic solution will be added.
The cell viability test was performed to verify the effect of the various compounds on the various concentrations previously established: on the lines of tumor cells B16F10 and normal human fibroblasts. The MTT method consists of a cell viability test that measures the activity of mitochondrial dehydrogenase. MTT is a colorimetric method based on the capacity of living cells to reduce salt 3-(4,5-di-methylazole-2-IL)-2,5-diphenyl tetrazolium bromide in the formazan product (Mosmann, 1983). […]
The 96-well plate was read by the spectrophotometer (Spectra MAX-190) using the wavelength of 570 nm. The results were analyzed by absorbance of each well. The percentage of viability was obtained using the following formula: [(Absorbance of treated cells/Absorbance of untreated cells)×100]. […]

[8] = test system: MCF-7 (human mammary adenocarcinoma); experiment: Cytotoxicity, MCF-7 cells; format: cell-based; details: MCF7, read-out: CI50% tumor cells
UACC62 = experiment: Cytotoxicity, UACC62 melanoma line; format: cell-based; details: Homo sapiens, UACC-62, read-out: CI50 (the source's name)
NCIADR = experiment: Cytotoxicity, NCIADR multiple drug resistant ovary line; format: cell-based; details: Homo sapiens, NCI/ADR-RES, read-out: CI50 (the source's name)
MCF7 = experiment: Cytotoxicity, MCF7 breast line; format: cell-based; details: Homo sapiens; MCF7 (breast cancer); read-out: CI50 (the source's name)
NCI460 = experiment: Cytotoxicity, NCI460 lung line; format: cell-based; details: Homo sapiens, NCI-460, read-out: CI50 (the source's name)
tumor cells line Colo205 = experiment: Colo205 cell count; format: cell-based; details: compared to cells treated with culture medium only
Method: The compounds were tested for their ability to reduce the number of cells in the tumor, compared to cells treated with culture medium only. In Table 4, the results obtained are shown.

Colo205 [9] = experiment: Analysis of the cell cycle phases, Colo205; format: cell-based
Description: The compounds of this family were also studied for the distribution of the population of tumor cells in the different phases of the cell cycle: quiescent cells, non-proliferating (G1/G0 phase), which present DNA/RNA synthesis capacity (S phase) and cell division cells (G2/M phase).

[10] = test system: murine melanoma cells B16F10; experiment: MTT cytotoxicity in B16F10 melanoma cells; format: cell-based; details: Mus musculus, B16-F10; B16F10 melanoma, 24 hours of culture, MTT; read-out: CI50% (the source's name)
Method: The tumor line of murine melanoma B16F10 was donated by the Ludwig-Switzerland Institute. Adherent cell suspensions of B16F10 cells were obtained for all experimental procedures by treating culture flasks with trypsin 0.2% for 5 minutes and inactivated with 10% fetal bovine serum. The detached cells were centrifuged twice, resuspended in supplemented RPMI-1640 medium. The count was performed in Malassez chamber, and the cell concentration was adjusted in 5×10^5 cells/ml, in RPMI-1640 culture medium supplemented with 10% fetal bovine serum and 7 ug polymyxin-B (Sigma Chemical Company, St Louis Mo.-USA).
Cell viability was determined by the Trypan Blue exclusion test, being greater than 95% of viable cells. The cells were grown in plates with 96 well plate flat bottoms (Corning), at a concentration of 2×10^5 cells, maintained for 24 hours in a CO2 oven at 37° C. After this period, the plates were centrifuged for 5 minutes, at 2000 rpm at 4° C., the supernatant discarded and added different concentrations of the compounds, diluted in RPMI-1640 culture medium, supplemented and increased by 7 μg of Polymyxin-B (Sigma Chemical Company). After treatment with the various diluted compounds in complete culture medium, the cells were incubated with 0.5 mg/mL of MTT reactive.
The cell viability test was performed to verify the effect of the various compounds on the various concentrations previously established: on the lines of tumor cells B16F10 and normal human fibroblasts. The MTT method consists of a cell viability test that measures the activity of mitochondrial dehydrogenase. MTT is a colorimetric method based on the capacity of living cells to reduce salt 3-(4,5-di-methylazole-2-IL)-2,5-diphenyl tetrazolium bromide in the formazan product (Mosmann, 1983). After the cells plating (concentration of 1×10^4 per well of the culture plate) in RPMI-1640 medium and 10% SFB medium, they were maintained at 37° C. for periods of 24, 48, 72 and 96 hours. Four hours before the set time was completed, MTT 20 μL (Sigma) was added (final concentration of […]). The plates were kept in the oven for the remaining four hours. After the stipulated time, 180 μL of the supernatant were removed from each well and then added 150 μL of dimethyl sulfoxide (Sigma) homogenizing well for the complete dissolution of the salt crystals formed by the mitochondrial metabolism resulting in a staining.
The 96-well plate was read by the spectrophotometer (Spectra MAX-190) using the wavelength of 570 nm. The results were analyzed by absorbance of each well. The percentage of viability was obtained using the following formula: [(Absorbance of treated cells/Absorbance of untreated cells)×100]. The experiments were carried out in quadruplicate.
The samples of the compounds obtained by synthesis chemistry were diluted in DMSO solution at the final concentration of 10%.

Colo205 [11] = experiment: Determination of apoptotic cells (subG1), Colo205, flow cytometry; format: cell-based; details: sub-diploid DNA content
Description: Determination of Apoptotic Cells (subG1)-Colo205
In this experiment, the proportion of apoptotic cells was identified, that is, cells showing DNA content below normal (sub-diploid) in flow cytometry testing.

[12] = test system: HUVEC (Normal human endothelial cell)

Compound: CC(=O)C(=C/C=C(\Cl)c1ccc(C#C[C@@H]2O[C@H](CO)[C@@H](O)[C@H](O)[C@@H]2O)cc1)C(C)=O [Compound 18B, 3-((Z)-3-chloro-3-(4-(2-((2S,3R,4R,5R)-tetrahydro-3,4,5-trihydroxy-6-(Hydroxymethy)-2H-pyran-2-il)ethynyl)phenyl)allilideno)pentano-2,4-dione]
CI50% Normal cells [1]: 0.293 µM | IC50 [2]: 0.453 µM | IC50 [3]: 0.445 µM | IC50 [4]: 0.431 µM

IC50 (DLD1): 127 µM
Compound: O=CC=C(Cl)c1ccccc1OC(=O)c1ccccc1 [Compound 5, 3-Chloro-3-(2-benzoyloxy-phenyl)propenal]
IC50 (Colo205 [5]; Colo205, Table 3, read-out: CI50% (the source's name)): 149 µM | IC50 (HT-29; HT-29, HT29, Table 3, read-out: CI50% (the source's name)): 92 µM | IC50 (SW620; SW620, Table 3, read-out: CI50% (the source's name)): 134 µM | IC50 (CRO2B; Table 3, read-out: CI50% (the source's name)): 149 µM | IC50 (PANC1; PANC1, Table 3, read-out: CI50% (the source's name)): 177 µM | IC50 (CaCo2; Caco2, Table 3, read-out: CI50% (the source's name)): 163 µM | cytotoxic activity relative to compound 6 ([6]; compared with compound 6): seven times lower | IC50 (BxPC3; BxPC3, Table 3, read-out: CI50% (the source's name)): 160 µM | IC50 (MIAP2; MIAP2, Table 3, read-out: CI50% (the source's name)): 156 µM

Compound: COc1ccc(/C=C/C(Cl)=C/C=O)cc1OC [Compound 23, (4E)-3-chloro-5-(3,4-dimethoxyphenyl)penta-2,4-dienal]
CI50% Normal cells [1]: 30.1 µM | CI50% Normal cells [7]: 53.33 µM | IC50 [2]: 3.32 µM | IC50 [3]: 15 µM | IC50 [4]: 22.1 µM | IC50 [8]: 54.6 µM

Compound: CC(=O)c1ccccc1OCC=C(C)C [Compound 9, 2-(3-methylbut-2-enyl-oxyi)acetophenone]
IC50 (UACC62): 220 µM | IC50 (NCIADR): 39.2 µM | IC50 (MCF7): 122 µM | IC50 (NCI460): 122 µM

Compound: COc1ccc(/C=C/C(Cl)=C/C=C(C(C)=O)C(C)=O)cc1OC [Compound 24, 3-((2Z,4E)-3-chloro-5-(3,4-dimethoxyphenyl)penta-2,4-dien-ylidene)pentane-2,4-dione]
CI50% Normal cells [1]: 114 µM | CI50% Normal cells [7]: 61.80 µM

Compound: N#CC(C#N)=C/C=C(\Cl)c1ccccc1OC(=O)c1ccccc1 [Compound 6, 2-(1-chloro-4,4-dicyano-buta-1,3-dienyl)phenyl Benzoate]
IC50 (Colo205 [5]; Colo205, colon, read-out: IC50): 16.4 µM | Relative number of cells (% ± standard deviation) (tumor cells line Colo205): 12.7 ± 0.339% | IC50 (HT-29; HT-29, colon, read-out: IC50): 4.47 µM | activity against fibroblasts (in words) ([7]; fibroblasts): significant activity | IC50 (SW620; SW620, colon, read-out: IC50): 13.4 µM | Cell cycle phase (%) G1/G0 (Colo205 [9]; G1/G0 phase): 64.3 ± 1.69% | Cell cycle phase (%) G2M (Colo205 [9]; G2/M phase): 16.0 ± 0.28% | Cell cycle phase (%) S (Colo205 [9]; S phase): 19.7 ± 1.48% | IC50 (CRO2B; carcinoid, read-out: IC50): 7.46 µM | IC50 (PANC1; PANC1, pancreas, read-out: IC50): 57.3 µM | IC50 (CaCo2; CaCo2, colon, read-out: IC50): 9.25 µM | IC50 [10]: 30.6 µg/mL and 91.6 µM | cytotoxic activity (in words) ([6]; tumor cell lines of human carcinoma tested): potent in vitro activity | IC50 (BxPC3; BxPC3, pancreas, read-out: IC50): 27.7 µM | IC50 (MIAP2; MIAP2, pancreas, read-out: IC50): 4.47 µM | Percentage of cells (apoptotic, subG1) (Colo205 [11]): 41.8 ± 0.141%

CI50% Normal cells [12]: 23.09 µM
Compound: 5-(chloro-2-(3,4-dimethoxybenzyl)-5-(4-ethynyl-2,3,4,6-benzil-β-D-galactopyranoside)-penta-2,4-dienonitrile [Compound 21A]

Reference: patent US20230130823A1, “PROCESS FOR THE PRODUCTION OF ANTITUMOUR PHARMACEUTICAL COMPOSITIONS USING PUSH-PULL BUTADIENES, COMPOUNDS AND USES THEREOF” (ANHANGUERA EDUCACIONAL PARTICIPAÇÕES S/A, priority 2019, published 2023)
